Reference: ChEMBL document CHEMBL1153340, “Inhibitors of HIV-1 attachment. Part 2: An initial survey of indole substitution patterns” (Bioorg Med Chem Lett, 2009)

Columns and labels:
[1] = Cytotoxicity against human HeLa67 cells expressing CD4/CCR5 after 3 days by XTT assay; type: cell-based
[2] = Terminal half life in rat at 25 mg/kg, po dosed as solution in PEG400/EtOH; type: ADME, organism-based; parameters: dose 25 mg/kg, route oral; conditions: in vivo, read-out: beta t1/2
[3] = Cmax in rat at 25 mg/kg, po dosed as solution in PEG400/EtOH; type: ADME, organism-based; parameters: dose 25 mg/kg, route oral; conditions: in vivo
[4] = Terminal half life in rat at 5 mg/kg, iv dosed as solution in PEG400/EtOH; type: ADME, organism-based; parameters: dose 5 mg/kg, route intravenous; conditions: in vivo, read-out: beta t1/2
[5] = Mean residence time in rat at 5 mg/kg, iv dosed as solution in PEG400/EtOH; type: ADME, organism-based; parameters: dose 5 mg/kg, route intravenous; conditions: in vivo
[6] = Clearance in rat at 5 mg/kg, iv dosed as solution in PEG400/EtOH; type: ADME, organism-based; parameters: dose 5 mg/kg, route intravenous; conditions: in vivo
[7] = system: Human immunodeficiency virus 1; assay: Antiviral activity against pseudotype HIV1 JRFL infected in human HeLa67 cells expressing CD4/CCR5 after 3 days by luciferase reporter gene assay; type: functional, organism-based; conditions: Human immunodeficiency virus 1, JRFL, HeLa67, 72 h
[8] = Tmax in rat at 25 mg/kg, po dosed as solution in PEG400/EtOH; type: ADME, organism-based; parameters: dose 25 mg/kg, route oral; conditions: in vivo
[9] = Oral bioavailability in rat at 25 mg/kg dosed as solution in PEG400/EtOH; type: ADME, organism-based; conditions: in vivo
[10] = Permeability across human Caco-2 cells; type: ADME, cell-based; conditions: read-out: permeability
[11] = Volume of distribution at steady state in rat at 5 mg/kg, iv dosed as solution in PEG400/EtOH; type: ADME, organism-based; parameters: dose 5 mg/kg, route intravenous; conditions: in vivo, read-out: Vdss
[12] = Volume of distribution at steady state in rat at 1 mg/kg, iv dosed as solution in PEG400/EtOH; type: ADME, organism-based; parameters: dose 1 mg/kg, route intravenous; conditions: in vivo, read-out: Vdss
[13] = Terminal half life in rat at 5 mg/kg, po dosed as solution in PEG400/EtOH; type: ADME, organism-based; parameters: dose 5 mg/kg, route oral; conditions: in vivo, read-out: beta t1/2
[14] = Terminal half life in rat at 1 mg/kg, iv dosed as solution in PEG400/EtOH; type: ADME, organism-based; parameters: dose 1 mg/kg, route intravenous; conditions: in vivo, read-out: beta t1/2
[15] = Tmax in rat at 5 mg/kg, po dosed as solution in PEG400/EtOH; type: ADME, organism-based; parameters: dose 5 mg/kg, route oral; conditions: in vivo
[16] = Cmax in rat at 5 mg/kg, po dosed as solution in PEG400/EtOH; type: ADME, organism-based; parameters: dose 5 mg/kg, route oral; conditions: in vivo
[17] = Mean residence time in rat at 1 mg/kg, iv dosed as solution in PEG400/EtOH; type: ADME, organism-based; parameters: dose 1 mg/kg, route intravenous; conditions: in vivo
[18] = Oral bioavailability in rat at 5 mg/kg dosed as solution in PEG400/EtOH; type: ADME, organism-based; conditions: in vivo
[19] = Clearance in rat at 1 mg/kg, iv dosed as solution in PEG400/EtOH; type: ADME, organism-based; parameters: dose 1 mg/kg, route intravenous; conditions: in vivo
[20] = system: Human immunodeficiency virus 1; assay: Antiviral activity against pseudotype HIV1 LAI infected in human HeLa67 cells expressing CD4/CCR5 after 3 days by luciferase reporter gene assay; type: functional, organism-based; conditions: Human immunodeficiency virus 1, LAI, HeLa67, 72 h

Row | Structure (SMILES) | CC50 at 72 h [1] | EC50 [7] | further results
1 | O=C(C(=O)N1CCN(C(=O)c2ccccc2)CC1)c1c[nH]c2ccccc12 | 339 µM | 153 nM | half-life [2]: 2.72 h; Cmax [3]: 1040 ng/mL; half-life [4]: 0.5 h; MRT [5]: 0.433 h; clearance [6]: 57 mL/min/kg; Tmax [8]: 0.55 h; bioavailability [9]: 29%; Papp [10]: 22.8 ×10⁻⁶ cm/s; Vd [11]: 1.5 L/kg
2 | CCOc1cccc2c(C(=O)C(=O)N3CCN(C(=O)c4ccccc4)CC3)c[nH]c12 | 117 µM | 0.5 nM | 
3 | N#Cc1ccc2[nH]cc(C(=O)C(=O)N3CCN(C(=O)c4ccccc4)CC3)c2c1 | > 300 µM | 121000 nM | 
4 | COc1ccc(Cl)c2[nH]cc(C(=O)C(=O)N3CCN(C(=O)c4ccccc4)CC3)c12 | > 300 µM | 0.07 nM | 
5 | O=C(C(=O)N1CCN(C(=O)c2ccccc2)CC1)c1c[nH]c2cccc(Br)c12 | 142 µM | 4.5 nM | 
6 | O=C(C(=O)N1CCN(C(=O)c2ccccc2)CC1)c1c[nH]c2cccc([N+](=O)[O-])c12 | > 300 µM | 150 nM | 
7 | CC(=O)Oc1ccc2[nH]cc(C(=O)C(=O)N3CCN(C(=O)c4ccccc4)CC3)c2c1 | 95.2 µM | 952 nM | 
8 | O=C(C(=O)N1CCN(C(=O)c2ccccc2)CC1)c1c[nH]c2cc(Cl)ccc12 | > 110 µM | 208 nM | 
9 | COc1ccc2c(C(=O)C(=O)N3CCN(C(=O)c4ccccc4)CC3)c[nH]c2c1 | > 300 µM | 329 nM | 
10 | CC(=O)Oc1cccc2[nH]cc(C(=O)C(=O)N3CCN(C(=O)c4ccccc4)CC3)c12 | > 300 µM | 24900 nM | 
11 | C/C=C/n1cc(C(=O)C(=O)N2CCN(C(=O)c3ccccc3)CC2)c2ccccc21 | 202 µM | 6760 nM | 
12 | O=C(C(=O)N1CCN(C(=O)c2ccccc2)CC1)c1c[nH]c2c(F)c(F)c(F)c(F)c12 | 55.7 µM | 1.7 nM | 
13 | CCn1cc(C(=O)C(=O)N2CCN(C(=O)c3ccccc3)CC2)c2ccccc21 | > 300 µM | 1450 nM | 
14 | O=C(C(=O)N1CCN(C(=O)c2ccccc2)CC1)c1cn(Cc2ccccc2)c2ccccc12 | 182 µM | 13800 nM | 
15 | CCCCn1cc(C(=O)C(=O)N2CCN(C(=O)c3ccccc3)CC2)c2ccccc21 | > 300 µM | 2650 nM | 
16 | COc1ccc2[nH]cc(C(=O)C(=O)N3CCN(C(=O)c4ccccc4)CC3)c2c1 | > 300 µM | 21100 nM | 
17 | O=C(C(=O)N1CCN(C(=O)c2ccccc2)CC1)c1c[nH]c2ccc([N+](=O)[O-])cc12 | 44.6 µM | 3800 nM | 
18 | CCOc1cccc2[nH]cc(C(=O)C(=O)N3CCN(C(=O)c4ccccc4)CC3)c12 | > 94.8 µM | 0.45 nM | 
19 | O=C(C(=O)N1CCN(C(=O)c2ccccc2)CC1)c1c[nH]c2c(Br)ccc(OC(F)(F)F)c12 | 75.7 µM | 42.8 nM | 

Row | Structure (SMILES) | CC50 at 72 h [1] | EC50 [7] | further results
20 | O=C(C(=O)N1CCN(C(=O)c2ccccc2)CC1)c1c[nH]c2ccc(F)cc12 | > 300 µM | 838 nM | 
21 | O=C(C(=O)N1CCN(C(=O)c2ccccc2)CC1)c1c[nH]c2ccc(Cl)cc12 | 46 µM | 395 nM | 
22 | O=C(C(=O)N1CCN(C(=O)c2ccccc2)CC1)c1c[nH]c2ccc(Br)cc12 | > 149 µM | 1090 nM | 
23 | O=C(C(=O)N1CCN(C(=O)c2ccccc2)CC1)c1c[nH]c2c(Br)ccc(F)c12 | 39.8 µM | 0.13 nM | 
24 | Cc1ccc2[nH]cc(C(=O)C(=O)N3CCN(C(=O)c4ccccc4)CC3)c2c1 | > 300 µM | 1550 nM | 
25 | O=C(C(=O)N1CCN(C(=O)c2ccccc2)CC1)c1c[nH]c2cc(F)c(Br)c(F)c12 | 20.9 µM | 23.1 nM | 
26 | O=C(C(=O)N1CCN(C(=O)c2ccccc2)CC1)c1c[nH]c2c(F)ccc(F)c12 | > 300 µM | 0.35 nM | Vd [12]: 0.85 L/kg; half-life [13]: 9.18 h; half-life [14]: 0.283 h; Tmax [15]: 0.333 h; Cmax [16]: 55 ng/mL; MRT [17]: 0.317 h; bioavailability [18]: 11%; Papp [10]: 21.9 ×10⁻⁶ cm/s; clearance [19]: 46.9 mL/min/kg
27 | CCc1cccc2c(C(=O)C(=O)N3CCN(C(=O)c4ccccc4)CC3)c[nH]c12 | > 49 µM | 24.2 nM | 
28 | O=C(C(=O)N1CCN(C(=O)c2ccccc2)CC1)c1c[nH]c2cc(F)c(F)cc12 | 170 µM | > 290 nM | 
29 | N#Cc1cccc2c(C(=O)C(=O)N3CCN(C(=O)c4ccccc4)CC3)c[nH]c12 | 234 µM | 4.9 nM | 
30 | CCCCOc1cccc2c(C(=O)C(=O)N3CCN(C(=O)c4ccccc4)CC3)c[nH]c12 | 64.5 µM | 0.14 nM | 
31 | N#Cc1ccc(F)c2c(C(=O)C(=O)N3CCN(C(=O)c4ccccc4)CC3)c[nH]c12 | > 300 µM | 1.9 nM | 
32 | O=C(C(=O)N1CCN(C(=O)c2ccccc2)CC1)c1c[nH]c2cc(F)cc(F)c12 | > 188 µM | 0.42 nM | 
33 | O=C(C(=O)N1CCN(C(=O)c2ccccc2)CC1)c1c[nH]c2c(Br)cccc12 | 64 µM | 17.4 nM | 
34 | Cc1cccc2c(C(=O)C(=O)N3CCN(C(=O)c4ccccc4)CC3)c[nH]c12 | > 218 µM | 89.5 nM | 
35 | N#Cc1ccc(F)c2[nH]cc(C(=O)C(=O)N3CCN(C(=O)c4ccccc4)CC3)c12 | > 300 µM | > 500 nM | 
36 | O=C(C(=O)N1CCN(C(=O)c2ccccc2)CC1)c1c[nH]c2cc(C(F)(F)F)ccc12 | 54.5 µM | > 5000 nM | 
37 | Cc1ccc(C)c2c(C(=O)C(=O)N3CCN(C(=O)c4ccccc4)CC3)c[nH]c12 | 202 µM | > 500 nM | 
38 | O=C(C(=O)N1CCN(C(=O)c2ccccc2)CC1)c1c[nH]c2cccc(O)c12 | > 300 µM | 20100 nM | 

Row | Structure (SMILES) | CC50 at 72 h [1] | EC50 [7] | further results
39 | COc1ccc(Br)c2[nH]cc(C(=O)C(=O)N3CCN(C(=O)c4ccccc4)CC3)c12 | 118 µM | 0.13 nM | 
40 | O=C(C(=O)N1CCN(C(=O)c2ccccc2)CC1)c1c[nH]c2cc(Cl)c(F)cc12 | 98.5 µM | > 500 nM | 
41 | Cc1ccc(F)c2c(C(=O)C(=O)N3CCN(C(=O)c4ccccc4)CC3)c[nH]c12 | 87.5 µM | 0.56 nM | 
42 | COc1ccc(OC)c2c(C(=O)C(=O)N3CCN(C(=O)c4ccccc4)CC3)c[nH]c12 | 279 µM | 0.23 nM | Vd [12]: 0.52 L/kg; half-life [13]: 1.85 h; half-life [14]: 2.3 h; Tmax [15]: 3 h; Cmax [16]: 3200 ng/mL; MRT [17]: 1.7 h; bioavailability [18]: 107%; clearance [19]: 5.2 mL/min/kg
43 | COc1ccc(C#N)c2[nH]cc(C(=O)C(=O)N3CCN(C(=O)c4ccccc4)CC3)c12 | > 275 µM | 0.06 nM | 
44 | O=C(C(=O)N1CCN(C(=O)c2ccccc2)CC1)c1c[nH]c2c(F)cccc12 | > 152 µM | 7.3 nM | 
45 | Cn1cc(C(=O)C(=O)N2CCN(C(=O)c3ccccc3)CC2)c2ccccc21 | 226 µM | 265 nM | 
46 | COc1cc2[nH]cc(C(=O)C(=O)N3CCN(C(=O)c4ccccc4)CC3)c2cc1OC | > 300 µM | 46500 nM | 
47 | O=C(C(=O)N1CCN(C(=O)c2ccccc2)CC1)c1c[nH]c2c(Cl)cccc12 | 162 µM | 4.4 nM | 
48 | CC(C)Oc1cccc2[nH]cc(C(=O)C(=O)N3CCN(C(=O)c4ccccc4)CC3)c12 | 150 µM | > 500 nM | 
49 | COc1ccc(F)c2c(C(=O)C(=O)N3CCN(C(=O)c4ccccc4)CC3)c[nH]c12 | > 300 µM | 0.06 nM | 
50 | O=C(C(=O)N1CCN(C(=O)c2ccccc2)CC1)c1c[nH]c2c(Br)cc(F)cc12 | 22.5 µM | 73.1 nM | 
51 | COc1cccc2c(C(=O)C(=O)N3CCN(C(=O)c4ccccc4)CC3)c[nH]c12 | 154 µM | 6.6 nM | 
52 | O=C(C(=O)N1CCN(C(=O)c2ccccc2)CC1)c1c[nH]c2cc(Cl)c(Cl)cc12 | 52.3 µM |  | EC50 [20]: 0.5 µM
53 | O=C(C(=O)N1CCN(C(=O)c2ccccc2)CC1)c1c[nH]c2c(OCC(F)(F)F)ccc(F)c12 | 196 µM | 0.71 nM | 
54 | O=C(C(=O)N1CCN(C(=O)c2ccccc2)CC1)c1c[nH]c2cccc(Cl)c12 | 212 µM | 4.3 nM | 
55 | COc1cccc2[nH]cc(C(=O)C(=O)N3CCN(C(=O)c4ccccc4)CC3)c12 | > 300 µM | 0.52 nM | 
56 | O=C(C(=O)N1CCN(C(=O)c2ccccc2)CC1)c1c[nH]c2cc(F)ccc12 | > 245 µM | 21.1 nM | 
57 | O=C(C(=O)N1CCN(C(=O)c2ccccc2)CC1)c1c[nH]c2c(F)ccc(Br)c12 | 86 µM | 8.2 nM | 
